# Experimental data from patent EP1333824B1, “TREATMENT OF SEXUAL DYSFUNCTION WITH BOMBESIN RECEPTOR ANTAGONISTS” (Warner-Lambert Company LLC, priority 2000, dated 2002).
# Key:
# [1] = tested on: Ovariectomised adult female Sprague Dawley rats; assay: Female rat sexual proceptivity test (time investigating male vs female stimulus); assay type: in vivo
# Procedure: Ovariectomised adult female Sprague Dawley rats (180-200g, from Charles River) were housed in groups of 6 in a reversed lighting system of 12h light:dark (lights off 7.00-19.00h). Two weeks after ovariectomy they were used for sexual activity tests. The experiments started at least 5h into the dark period.
# Tests were carried out in a circular arena of 90cm diameter, surrounded by a 30cm high wall. Two small cages with wire-mesh front (15x15cm) are fixed into the wall such that the front of the cage is «flush» with the wall and the 2 cages are opposite each other. They contained two stimuli animals: an intact sexually experienced male and a receptive female (ovariectomised, primed with 5µg oestradiol benzoate dissolved in corn oil and injected subcutaneously 48 hours before the test and with 0.5 mg of progesterone four hours before the test). Sexually naive test and control animals were used. Forty eight hours before the tests, both the test and control animals were primed with 5µg oestradiol benzoate. For animals used as positive controls, progesterone (0.5mg/0.1ml) was dissolved in corn oil and administered subcutaneously (s.c.), 4h before the test. Test and control animals were introduced one at a time for 10 minute periods into the arena. During the 10min test, the time that the test or positive control animal spent investigating each stimulus animal was noted. The arena was thoroughly cleaned between animals. The position of the male/female stimuli boxes was randomised between animals, in order to avoid place preference. The difference in the percentage of time spent investigating the male minus the female stimuli was calculated, out of the total time spent investigating stimuli animals. […]
# Ovariectomised adult female Sprague Dawley rats (180-200g) were housed in groups of 5 in a reversed lighting system of 12h light:dark (lights off 5.00-17.00h). They were used for the experiments at least two weeks after ovariectomy. Forty eight hours before tests, the animals were primed with oestradiol benzoate (5µg/0.1ml in corn oil, s.c.). On day 1, progesterone (0.5mg/0.1ml, in corn oil, s.c.) was administered to one of the groups 4h before tests, as a positive control. […] The test lasted 10 minutes and was carried out as described before. The difference in the percentage of time spent investigating the male minus the female stimuli was calculated, out of the total time spent investigating stimuli animals. Animals were submitted to a test on day 1 and on day 15. […] On day 15 the test took place again, as described for day 1. […]
# Sprague Dawley male rats [2] = assay: Sexual behaviour of normal (sexually vigorous) male rats; assay type: in vivo, rat; conditions: Compound (1) 15mg/kg or Fluoxetine 20mg/kg i.p. 1h before tests, vs vehicle
# Procedure: Sprague Dawley male rats (Charles River, UK) were kept, 4 rats per cage, in a reversed lighting regime (12:12 hours, lights off at 5.00 h), with free access to food and water. The rats were pre-selected by being presented with a receptive female at 4 days intervals, i.e. every third day (having 2 clear days between presentations) until completing 6-7 days of baseline determination. The animals showing consistently vigorous behaviour (ejaculatory latencies <300s) were chosen for further experiments (n=24). Animals were randomised into three groups. All animals received all three treatments following a latin-square design. Treatments were administered once a week, with a baseline test in between treatments (4 days intervals between baseline and test day). […] All treatments were administered i.p. in a 1ml/kg volume, 1h before tests.
# For all the sexual behaviour tests, the males were placed in an observation arena (50-60 cm diameter), starting 5 hours into the dark cycle and observed under red illumination. Three to 4 minutes after placing the male in the arena, a receptive female (ovariectomised, bearing a 7 mm Silastic implant of oestradiol benzoate) was introduced to the arena and the following parameters noted: Mount Latency: time (in seconds) taken between introduction of female and first mount. A maximum time of 15 minutes (900 seconds) was allowed, and the test terminated if no mounts were recorded within that time (Figure 11), Intromission Latency: time (in seconds) taken between introduction of female and first intromission (Figure 12), Number of Mounts: to reach ejaculation. When ejaculation was not reached, the number of mounts was not analyzed, Number of Intromissions: to reach ejaculation. When ejaculation was not reached, the number of intromissions was not analyzed (Figure 13 is number of mounts + intromissions), Ejaculation Latency: time (in seconds) taken from first intromission to ejaculation. A maximum time of 30 minutes (1800 seconds) was given, and the test terminated if ejaculation was not achieved in that time (Figure 14), and Refractory Period: time (in seconds) taken from ejaculation to the first mount of the next series of sexual activity. In those animals reaching ejaculation the test was terminated at the end of the refractory period, as indicated by the first mount of the next sexual cycle (Figure 15).
# A one-way ANOVA followed by Dunnett's t test was used to compare treated vs vehicle groups each day of testing, for all the sexual behaviour parameters.
# Sprague Dawley male rats [3] = assay: Sexual behaviour of fluoxetine-induced sexually dysfunctional male rats; assay type: in vivo, rat; conditions: fluoxetine 20mg/kg i.p. 3 days (vs vehicle+vehicle)
# Procedure: Sprague Dawley male rats (Charles River, UK) were kept, 4 rats per cage, in a reversed lighting regime (12:12 hours, lights off at 5.00 h), with free access to food and water. The rats were pre-selected by being presented with a receptive female at 4 days intervals, i.e. every third day (having 2 clear days between presentations) until completing 6-7 trials of baseline determination. The animals showing consistently vigorous behaviour (ejaculatory latencies <300s) were chosen for further experiments. Animals were treated for 3 consecutive days with either vehicle (water) or fluoxetine (20mg/kg, i.p., in a 2ml/kg dosing volume). […] All treatments were administered i.p. in a 1ml/kg volume, 1h before tests.
# For all the sexual behaviour tests, the males were placed in an observation arena (50-60 cm diameter), starting 5 hours into the dark cycle and observed under red illumination. Three to 4 minutes after placing the male in the arena, a receptive female (ovariectomised, bearing a 7 mm Silastic implant of oestradiol benzoate) was introduced to the arena and the following parameters noted: Mount Latency: time (in seconds) taken between introduction of female and first mount. A maximum time of 15 minutes (900 seconds) was allowed, and the test terminated if no mounts were recorded within that time (Figure 16), Ejaculation Latency: time (in seconds) taken from first intromission to ejaculation. A maximum time of 30 minutes (1800 seconds) was given, and the test terminated if ejaculation was not achieved in that time (Figure 17), Percentage of males achieving ejaculation within 30 minutes was calculated (Figure 18).
# A one-way ANOVA followed by Dunnett's t test was used to compare the fluoxetine+vehicle group and other groups for mount and ejaculatory latencies. Percentage of animals ejaculating was analysed using a Chi-square test followed by Fisher's test. (*: P<0.05, **: P<0.01, ***: P<0.001; n=15-19).
# [4] = day 4 Compound (1) 15mg/kg or yohimbine 2mg/kg i.p. 1h before tests (vs fluoxetine+vehicle)
smiles,measurement,setting,value
"COc1ccc(C2(CNC(=O)[C@](C)(Cc3c[nH]c4ccccc34)NC(=O)Nc3ccc([N+](=O)[O-])cc3)CCCCC2)nc1 [Compound (1), (S) 3-(1H-Indol-3-yl)-N-[1-(5-methoxy-pyridin-2-yl)-cyclohexyl-methyl]-2-methyl-2-[3-(4-nitro-phenyl)-ureido]-propionamide]",percentage of time spent investigating the male stimulus,"[1]; Example 1, i.p., dose-dependent 3mg/kg-10mg/kg, 1h before tests, vs vehicle",increased the percentage of time spent investigating the male stimulus
same,"proceptivity, day 1","[1]; Example 3, Compound (1) 15mg/kg i.p. 1h before test, progesterone 0.5mg/0.1ml s.c. 4h before, vs vehicle, P<0.01",stimulatory effect on proceptivity
same,body weight or general behaviour,"[1]; Example 3, repeated daily administration 15mg/kg i.p. over 15 days",no changes in body weight or general behaviour
same,MED (increase in percentage of time spent investigating the male stimulus),"[1]; Example 4, i.c.v., 3-30µg/rat, 10min before tests",10 µg
same,percentage of time spent investigating the male stimulus,"[1]; Example 4, i.c.v., dose-dependent 3-30µg/rat, 10min before tests",increased the percentage of time spent investigating the male stimulus
same,antagonism of the inhibitory effect of NMB on proceptivity,"[1]; Example 5, Compound (1) 15mg/kg i.p. 1h before i.c.v. NMB 100ng, blockade not total at this dose",prevented the inhibitory effect of NMB
same,Ejaculation latency,Sprague Dawley male rats [2],no effect
same,Intromission latency,Sprague Dawley male rats [2],no effect
same,Mount latency,Sprague Dawley male rats [2],no effect
same,Refractory period,Sprague Dawley male rats [2],no effect
same,number of mounts and intromissions required to achieve ejaculation,Sprague Dawley male rats [2],no effect
same,Ejaculation latency,Sprague Dawley male rats [3]; [4],significantly decreased
same,Mount latency,Sprague Dawley male rats [3]; [4],significantly decreased
same,percentage of animals ejaculating,"Sprague Dawley male rats [3]; within 30 minutes, day 4 Compound (1) 15mg/kg or yohimbine 2mg/kg i.p. (vs fluoxetine+vehicle)",increasing the percentage of animals ejaculating
